Where two headings read alike, the source gives them in different places.

Common to all, as to assay type: cell-based
In experiment [1] the test system is SARS‐CoV‐2 spike protein pseudotyped lentivirus, D614G variant. The note with it: read-out: Pseudovirus assay, IC50, D614G.
Experiment [2] relates to SARS‐CoV‐2 spike protein pseudotyped lentivirus, Delta variant. In words: organism not typed. The note with it: read-out: Pseudovirus assay, IC50, Delta.
Experiment [3] deals with SARS‐CoV‐2 spike protein pseudotyped lentivirus, Omicron variant. Briefly: organism not typed. The note with it: read-out: Pseudovirus assay, IC50, Omicron.
For experiment [4], the system named is SARS‐CoV‐2 spike protein pseudotyped lentivirus, D614G, Delta, and Omicron variants. The note with it: for IC50: read-out: Pseudovirus assay, IC50 values as a range over D614G, Delta, and Omicron variants.

Consider `COc1cc2c3cc1Oc1c(OC)c(OC)cc4c1[C@@H](Cc1ccc(O)c(c1)Oc1ccc(cc1)C[C@@H]3N(C)CC2)N(C)CC4` [Compound 17, (+)‐berbamine], for which the IC50 is 2.23 ± 0.49 µM in experiment [1], 2.56 ± 0.16 µM in experiment [2] (HEK-293T) and 2.29 ± 0.29 µM in experiment [3] (HEK-293T).
For `COc1cc2c3cc1Oc1c(O)c(OC)cc4c1[C@@H](Cc1ccc(O)c(c1)Oc1ccc(cc1)C[C@@H]3N(C)CC2)N(C)CC4` [Compound 19, (+)‐obamegine], in that order: 1.4 ± 0.35 µM, 2.61 ± 0.42 µM and 1.19 ± 0.16 µM.
With (+)‐aromoline [Compound 16], the IC50 in experiment [1] was 0.67 ± 0.09 µM; in experiment [4], 0.47 to 0.66 µM; in experiment [2] (mean ± SEM (n = 3)) it was 0.47 ± 0.08 µM; in experiment [3] (mean ± SEM (n = 3)), 0.86 ± 0.12 µM.
As for (±)‐Haemanthidine [Compound 1], the IC50 in experiment [1] (mean ± SEM (n = 3)) and in experiment [2] (mean ± SEM (n = 3)) was above 10 µM each time. The “activity in SARS‐CoV‐2 S‐protein and ACE2 binding (pseudovirus) assay (in words)” value in experiment [4] is “inactive at nontoxic concentration”.
As for `COc1ccc2cc1Oc1ccc(cc1)C[C@H]1c3c(cc4c(c3Oc3cc5c(cc3OC)CCN(C)[C@@H]5C2)OCO4)CCN1C` [Cepharantine, Cepharanthine, reference compound], the IC50 in experiment [1] came out at 0.48 ± 0.09 µM; in experiment [2] (HEK-293T), 1.64 ± 0.18 µM; in experiment [3] (HEK-293T), 1.31 ± 0.07 µM.
With `CC(C)C[C@H](NC(=O)[C@H]1O[C@@H]1C(=O)O)C(=O)NCCCCN=C(N)N` [E‐64, reference compound], the IC50 in experiment [1] (mean ± SEM (n = 3)) was 23.1 ± 0.63 µM; in experiment [4] it was 22.7 to 23.1 µM; in experiment [2] (mean ± SEM (n = 3)), 23.1 ± 1.3 µM; in experiment [3] (mean ± SEM (n = 3)), 22.7 ± 1.28 µM.

(Values after article PMC12497685, “Anticoronavirus Isoquinoline Alkaloids: Unraveling the Secrets of Their Structure–Activity Relationship” (Influenza and Other Respiratory Viruses, 2025).)
